Target: T1, Swiss Cheese (SWS) (Drosophila melanogaster, UniProt Q9U969)
T1 construct: native full-length SWS in fly head homogenate, not purified; sws1 null mutant used as control
Assay: esterase activity in fly head homogenates
Assay type: biochemical
Details: untreated flies; activity very low in sws1 null, raised to about 160% with SWS overexpression

T1 sequence (Q9U969 whole entry): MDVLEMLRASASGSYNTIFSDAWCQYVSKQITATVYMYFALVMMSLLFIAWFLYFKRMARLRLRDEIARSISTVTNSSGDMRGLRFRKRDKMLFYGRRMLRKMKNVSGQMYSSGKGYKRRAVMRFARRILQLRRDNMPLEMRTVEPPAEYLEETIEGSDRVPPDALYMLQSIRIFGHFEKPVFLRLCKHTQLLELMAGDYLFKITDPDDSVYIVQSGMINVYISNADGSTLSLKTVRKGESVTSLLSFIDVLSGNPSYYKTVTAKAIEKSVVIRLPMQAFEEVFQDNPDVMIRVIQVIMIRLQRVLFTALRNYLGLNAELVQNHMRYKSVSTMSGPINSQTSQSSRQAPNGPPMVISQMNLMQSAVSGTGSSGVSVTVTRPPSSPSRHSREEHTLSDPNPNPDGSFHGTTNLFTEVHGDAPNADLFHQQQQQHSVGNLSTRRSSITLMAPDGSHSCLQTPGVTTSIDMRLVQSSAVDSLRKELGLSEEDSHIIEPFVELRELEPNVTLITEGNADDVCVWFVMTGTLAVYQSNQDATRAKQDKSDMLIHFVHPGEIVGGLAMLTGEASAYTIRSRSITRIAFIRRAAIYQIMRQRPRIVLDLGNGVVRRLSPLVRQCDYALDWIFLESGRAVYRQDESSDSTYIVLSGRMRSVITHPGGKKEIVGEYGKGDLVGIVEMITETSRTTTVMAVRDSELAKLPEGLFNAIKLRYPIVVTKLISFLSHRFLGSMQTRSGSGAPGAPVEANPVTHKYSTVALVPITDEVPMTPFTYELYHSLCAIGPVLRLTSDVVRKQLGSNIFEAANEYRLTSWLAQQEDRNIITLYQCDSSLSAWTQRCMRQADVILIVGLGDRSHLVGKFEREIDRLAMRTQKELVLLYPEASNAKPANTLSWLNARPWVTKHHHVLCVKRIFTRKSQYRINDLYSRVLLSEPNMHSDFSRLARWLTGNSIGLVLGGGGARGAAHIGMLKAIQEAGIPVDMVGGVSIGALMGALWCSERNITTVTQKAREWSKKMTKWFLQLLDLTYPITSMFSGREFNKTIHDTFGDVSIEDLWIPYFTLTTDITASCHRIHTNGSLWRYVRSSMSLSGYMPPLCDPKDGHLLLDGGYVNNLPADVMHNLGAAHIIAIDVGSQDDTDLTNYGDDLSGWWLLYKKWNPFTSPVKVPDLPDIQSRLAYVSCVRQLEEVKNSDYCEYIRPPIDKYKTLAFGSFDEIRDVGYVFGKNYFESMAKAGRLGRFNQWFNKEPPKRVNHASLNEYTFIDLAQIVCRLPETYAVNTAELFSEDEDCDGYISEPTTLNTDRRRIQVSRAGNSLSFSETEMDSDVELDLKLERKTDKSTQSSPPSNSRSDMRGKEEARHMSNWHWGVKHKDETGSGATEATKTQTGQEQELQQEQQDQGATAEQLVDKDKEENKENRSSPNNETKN

## CCCCC(=O)Oc1ccccc1 [phenyl valerate]
  esterase activity in fly head homogenates: hydrolyzing activity against phenyl valerate, a standard substrate to detect NTE activity
